Literature values as cited in patent US20060148833A1, “Use of chymase inhibitors for the prevention and/or treatment of arterio-venous graft failure” (priority 2002, published 2006).

How the values were obtained:
[1] = tested on: balloon-injured dog coronary arteries; details: by suppression of vascular chymase levels
[2] = tested on: restenosis following PTCA; details: oral administration over three months, clinical trials
[3] = tested on: dog carotid artery; details: dog carotid artery balloon injury model
[4] = tested on: vein graft; details: dog model of vein graft injury

COc1ccc(C=CC(=O)Nc2ccccc2C(=O)O)cc1OC [Tranilast, N-(3,4-dimethoxycinnamoyl) anthranilic acid]
neointima formation [1]: suppresses neointima formation | rate of restenosis following PTCA [2]: markedly reduce the rate of restenosis

O=CNc1cnc(-c2ccccc2)n(CC(=O)NC(Cc2ccccc2)C(=O)C(=O)CCCOc2ccccn2)c1=O (stereo not shown) [NK3201, 2-(5-formylamino-6-oxo-3-phenyl-1,6,-dihydropyrmidine-1-yl)-N-{2,3-dioxo-6-(2-pyridyloxy)-1-phenylmethyl}hexyl acetamide]
intimal hyperplasia [3]: inhibit intimal hyperplasia | vascular proliferation and subsequent neointima formation [4]: inhibit vascular proliferation and subsequent neointima formation
